The target of one experiment is T1, GPR6 (Homo sapiens, UniProt P46095).
T1 construct: expressed in transfected cells; host or cells: CHO cells
The experiment is described as follows: GPR6 antagonist functional cAMP assay (LANCE Ultra cAMP TR-FRET, CHO cells stably expressing GPR6). Type of experiment: cell-based. The method in brief:
(§1)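 10,000 cells/well; KRB buffer + 0.1% BSA + 150 μM Ro 20-1724; cpd 45 min, 37 °C, 0.1% DMSO; TR-FRET cAMP, 665 nm; 4-PL fit, normalized to DMSO (0.1%) and reference (100%) → IC50.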
A general note: cAMP levels reflect the balance of adenylyl cyclase and phosphodiesterase activity.

For another experiment, the target named is T2, GPR3 (Homo sapiens, UniProt P46089).
T2 construct: expressed in transfected cells; host or cells: CHO cells
The experiment is described as follows: GPR3 antagonist functional cAMP assay (LANCE Ultra cAMP TR-FRET, CHO cells stably expressing GPR3). Type of experiment: cell-based. The method in brief:
as §1

[1] abbreviates: procedure as described in Example 24.

What is called IC50 is the concentration that gives 50% inhibition. Low values mean greater potency, high ones weaker potency.

A value given as a limit tells only on which side of the number the result lay.

T2 sequence (P46089 whole entry, species assumed): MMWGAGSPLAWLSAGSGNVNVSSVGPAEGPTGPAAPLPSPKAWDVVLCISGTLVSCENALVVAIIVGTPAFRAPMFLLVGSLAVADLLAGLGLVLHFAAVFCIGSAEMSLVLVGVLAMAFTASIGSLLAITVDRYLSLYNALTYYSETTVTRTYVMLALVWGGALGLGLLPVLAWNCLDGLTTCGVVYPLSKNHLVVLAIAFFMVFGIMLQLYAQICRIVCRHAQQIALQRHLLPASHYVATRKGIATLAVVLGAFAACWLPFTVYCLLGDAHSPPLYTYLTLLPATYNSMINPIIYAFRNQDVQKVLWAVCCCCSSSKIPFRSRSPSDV
T1 sequence (P46095 whole entry): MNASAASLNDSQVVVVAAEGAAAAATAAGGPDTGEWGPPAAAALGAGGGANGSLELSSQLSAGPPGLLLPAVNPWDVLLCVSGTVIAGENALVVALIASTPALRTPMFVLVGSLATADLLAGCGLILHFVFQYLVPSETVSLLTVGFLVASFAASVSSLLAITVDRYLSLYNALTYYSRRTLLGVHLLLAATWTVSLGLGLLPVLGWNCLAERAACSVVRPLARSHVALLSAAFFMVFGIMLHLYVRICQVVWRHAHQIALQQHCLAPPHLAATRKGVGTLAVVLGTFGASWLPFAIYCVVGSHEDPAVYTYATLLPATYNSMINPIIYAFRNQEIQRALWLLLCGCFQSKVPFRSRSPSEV

`CC(C)(O)[C@H](O)c1cc2nc(N3CCC(=Cc4ccc(F)cc4F)CC3)c(-c3cnn(CF)c3)nc2cn1` (single isomer, unassigned) [Compound 784]: the concentration for half-maximal inhibition (IC50) against GPR6 (procedure of Example 24) is under 0.1 µM; against GPR3 (procedure of Example 24), 1 to 30 µM.

With `CC(C)(O)[C@@H](O)c1cc2nc(N3CCC(=Cc4ccc(F)cc4F)CC3)c(-c3cnn(CF)c3)nc2cn1` (single isomer, unassigned) [Compound 785], the values for the IC50 against GPR6 (procedure of Example 24) and against GPR3 (procedure of Example 24) were under 0.1 µM and 1 to 30 µM, respectively.

Turning to `CC(C)(O)[C@H](O)c1cc2nc(-c3cnn(CF)c3)c(N3CCC(Cc4ccc(F)cc4F)CC3)nc2cn1` (single isomer, unassigned) [Compound 787], the IC50 against GPR6 (procedure of Example 24) and at GPR3 (procedure of Example 24) was under 0.1 µM throughout.

With `CC(C)(O)[C@](C)(O)c1cc2nc(-c3cnn(C(F)F)c3)c(N3CCN(Cc4cc(F)ccc4F)CC3)nc2cn1` (single isomer, unassigned) [Compound 795], the 50% inhibitory concentration (IC50) against GPR6 (procedure of Example 24) lay in the range of 0.1 to 1 µM; against GPR3 (procedure of Example 24), 1 to 30 µM.

Consider `CC(C)(O)[C@H](O)c1cc2nc(-c3cn[nH]c3)c(N3CCN(Cc4ccc(F)cc4F)CC3)nc2cn1` (single isomer, unassigned) [Compound 799], for which the IC50 against GPR6 (procedure of Example 24) and against GPR3 (procedure of Example 24) was 1 to 30 µM in each case.

As for `CC(C)(O)[C@@H](O)c1cc2nc(-c3cn[nH]c3)c(N3CCN(Cc4ccc(F)cc4F)CC3)nc2cn1` (single isomer, unassigned) [Compound 800], the IC50 against GPR6 (procedure of Example 24) is 0.1 to 1 µM; against GPR3 (procedure of Example 24), 1 to 30 µM.

For `Cn1cc(-c2nc3cc([C@H](O)C(C)(C)O)ncc3nc2N2CCN(Cc3ccc(F)cc3F)CC2)cn1` (stereo in doubt) [Compound 370, (Rel-S)-1-(3-(4-(2,4-difluorobenzyl)piperazin-1-yl)-2-(1-methyl-1H-pyrazol-4-yl)pyrido[3,4-b]pyrazin-7-yl)-2-methylpropane-1,2-diol], the concentration for half-maximal inhibition (IC50) at GPR6 (procedure of Example 24) was under 0.1 µM; on GPR3 (procedure of Example 24), 1 to 30 µM.

In the case of `CC(=O)N1CCc2nc(N3CCC(Oc4ccc(F)cc4F)CC3)c(-c3ncn[nH]3)nc2C1` [Compound 1, 1-{2-[4-(2,4-difluorophenoxy)piperidin-1-yl]-3-(1H-1,2,4-triazol-5-yl)-5H,6H,7H,8H-pyrido[3,4-b]pyrazin-6-yl}ethan-1-one], the IC50 lay in the range of 1 to 30 µM against GPR6 (setting [1]) and 0.1 to 1 µM at GPR3 (setting [1]).

On to `CC(=O)N1CCc2nc(N3CCC(Oc4ccc(F)cc4F)CC3)c(-c3cccc(C#N)n3)nc2C1` [Compound 2, 6-{6-acetyl-2-[4-(2,4-difluorophenoxy)piperidin-1-yl]-5H,6H,7H,8H-pyrido[3,4-b]pyrazin-3-yl}pyridine-2-carbonitrile], for which the IC50 lay within 0.1 to 1 µM against GPR6 (setting [1]) and 1 to 30 µM against GPR3 (setting [1]).

With `CC(=O)N1CCc2nc(N3CCC(Oc4ccc(F)cc4F)CC3)c(-c3cnn(CC(F)F)c3)nc2C1` [Compound 3, 1-{3-[1-(2,2-difluoroethyl)-1H-pyrazol-4-yl]-2-[4-(2,4-difluorophenoxy)piperidin-1-yl]-5H,6H,7H,8H-pyrido[3,4-b]pyrazin-6-yl}ethan-1-one], the values for the concentration for half-maximal inhibition (IC50) against GPR6 (setting [1]) and against GPR3 (setting [1]) were 0.1 to 1 µM and 1 to 30 µM, respectively.

Take `Fc1ccc(Cl)cc1CN1CCN(c2nc3ccncc3nc2-c2cn[nH]c2)CC1` [Compound 4, 1-[(5-chloro-2-fluorophenyl)methyl]-4-[3-(1H-pyrazol-4-yl)pyrido[3,4-b]pyrazin-2-yl]piperazine]: the IC50 at GPR6 (setting [1]) was 0.1 to 1 µM; on GPR3 (setting [1]), 1 to 30 µM.

For the compound `Clc1ccc(Cl)c(CN2CCN(c3nc4ccncc4nc3-c3ncc[nH]3)CC2)c1` [Compound 5, 1-[(2,5-dichlorophenyl)methyl]-4-[3-(1H-imidazol-2-yl)pyrido[3,4-b]pyrazin-2-yl]piperazine], the IC50 against GPR6 (setting [1]) fell in the range of 0.1 to 1 µM; against GPR3 (setting [1]), 1 to 30 µM.

Turning to `CNC(=O)c1ccc2nc(-c3nccn3COC)c(N3CCN(Cc4cc(Cl)ccc4Cl)CC3)nc2c1` [Compound 6, 3-{4-[(2,5-dichlorophenyl)methyl]piperazin-1-yl}-2-[1-(methoxymethyl)-1H-imidazol-2-yl]-N-methylquinoxaline-6-carboxamide], the half-maximal inhibitory concentration (IC50) against GPR6 (setting [1]) and against GPR3 (setting [1]) was 1 to 30 µM throughout.

`COc1ccnc(-c2nc3c(nc2N2CCC(Oc4ccc(F)cc4F)CC2)CCN(C(C)=O)C3)c1` [Compound 7, 1-(2-(4-(2,4-difluorophenoxy)piperidin-1-yl)-3-(4-methoxypyridin-2-yl)-7,8-dihydropyrido[3,4-b]pyrazin-6(5H)-yl)ethan-1-one]: the half-maximal inhibitory concentration (IC50) on GPR6 (setting [1]) was 1 to 30 µM; on GPR3 (setting [1]), 0.1 to 1 µM.

For `CC(=O)N1CCc2nc(N3CCC(Oc4ccc(F)cc4F)CC3)c(-c3cnsc3)nc2C1` [Compound 8, 1-{2-[4-(2,4-difluorophenoxy)piperidin-1-yl]-3-(1,2-thiazol-4-yl)-5H,6H,7H,8H-pyrido[3,4-b]pyrazin-6-yl}ethan-1-one], the results for the IC50 against GPR6 (setting [1]) and at GPR3 (setting [1]) were 0.1 to 1 µM and 1 to 30 µM, respectively.

Consider `Fc1ccc(OC2CCN(c3nc4ccncc4nc3-c3cn[nH]c3)CC2)c(F)c1` [Compound 9, 4-(2,4-difluorophenoxy)-1-[3-(1H-pyrazol-4-yl)pyrido[3,4-b]pyrazin-2-yl]piperidine], for which the concentration for half-maximal inhibition (IC50) at GPR6 (setting [1]) and against GPR3 (setting [1]) was 0.1 to 1 µM each time.

As for `COc1ccc(-c2nc3c(nc2N2CCC(Oc4ccc(F)cc4F)CC2)CCN(C(C)=O)C3)nc1` [Compound 10], the results for the 50% inhibitory concentration (IC50) on GPR6 (setting [1]) and at GPR3 (setting [1]) were 0.1 to 1 µM and 1 to 30 µM, respectively.

For the compound `CC(=O)N1CCc2nc(N3CCC(Oc4ccc(F)cc4F)CC3)c(-c3ccn[nH]3)nc2C1` [Compound 11, 1-{2-[4-(2,4-difluorophenoxy)piperidin-1-yl]-3-(1H-pyrazol-5-yl)-5H,6H,7H,8H-pyrido[3,4-b]pyrazin-6-yl}ethan-1-one], the concentration for half-maximal inhibition (IC50) against GPR6 (setting [1]) and at GPR3 (setting [1]) was 1 to 30 µM each time.

Regarding `CC(=O)N1CCc2nc(N3CCC(Oc4ccc(F)cc4F)CC3)c(-c3cncc(=O)[nH]3)nc2C1` [Compound 12, 6-{6-acetyl-2-[4-(2,4-difluorophenoxy)piperidin-1-yl]-5H,6H,7H,8H-pyrido[3,4-b]pyrazin-3-yl}-1,2-dihydropyrazin-2-one], the IC50 on GPR6 (setting [1]) and against GPR3 (setting [1]) was 1 to 30 µM each time.

Consider `CC(=O)N1CCc2nc(N3CCC(Oc4ccc(F)cc4F)CC3)c(-c3ccncn3)nc2C1` [Compound 13, 1-{2-[4-(2,4-difluorophenoxy)piperidin-1-yl]-3-(pyrimidin-4-yl)-5H,6H,7H,8H-pyrido[3,4-b]pyrazin-6-yl}ethan-1-one], for which the values for the half-inhibitory concentration (IC50) on GPR6 (setting [1]) and against GPR3 (setting [1]) were 1 to 30 µM and 0.1 to 1 µM, respectively.

For the compound `COCn1cc(-c2nc3c(nc2N2CCC(Oc4ccc(F)cc4F)CC2)CCN(C(C)=O)C3)cn1` [Compound 14, 1-{2-[4-(2,4-difluorophenoxy)piperidin-1-yl]-3-[1-(methoxymethyl)-1H-pyrazol-4-yl]-5H,6H,7H,8H-pyrido[3,4-b]pyrazin-6-yl}ethan-1-one], the IC50 against GPR6 (setting [1]) lay in the range of 0.1 to 1 µM; against GPR3 (setting [1]) it was 1 to 30 µM.

`CC(=O)N1CCc2nc(N3CCC(Oc4ccc(F)cc4F)CC3)c(-c3cnn(C(F)F)c3)nc2C1` [Compound 15, 1-{3-[1-(difluoromethyl)-1H-pyrazol-4-yl]-2-[4-(2,4-difluorophenoxy)piperidin-1-yl]-5H,6H,7H,8H-pyrido[3,4-b]pyrazin-6-yl}ethan-1-one]: the IC50 against GPR6 (setting [1]) is 0.1 to 1 µM; against GPR3 (setting [1]), 1 to 30 µM.

(Values after US20260042755A1, “GPR6 INVERSE AGONISTS” (MapLight Therapeutics, Inc., priority 2022, published 2026).)
